Assays:
rat βGK promoter = assay: On-line monitoring of βGK promoter-driven GFP expression (prβGK.GFP) in transfected HIT-T15 cells, islet cells and islets; type: cell-based, hamster (HIT-T15), rat (islet cells); settings: for effect of inhibitor on insulin-stimulated βGK transcription / promoter activity: 5 mU/ml insulin 5 min, 150 nM BIM, 20 μM PD98059, 10 μM PD169316, 100 μM HNMPA-(AM)3, 400 nM AC, FIG. 5; for effect of inhibitor on insulin-stimulated βGK transcription / promoter activity / effect of inhibitor on insulin-stimulated βGK promoter activity (GFP) in the same co-transfected cell: 25 μM LY294002, 10 nM rapamycin; for βGK promoter-driven GFP expression upon secretagogue stimulation: 50 mM KCl or 1 μM glibenclamide for 5 min at substimulatory glucose; for effect of inhibitor on insulin-stimulated βGK promoter activity (GFP) in the same co-transfected cell: 5 mU/ml insulin, 400 nM AC, 100 μM HNMPA-(AM)3
Source text: Construction of prIns1.GFP has been described earlier (Leibiger et al., 1998a). Vector prIns1.DsRed was generated by exchanging the EGFP-expression cassette versus the DsRed-expression cassette obtained from pDsRed1-1 (Clontech). Plasmid prβGK.GFP (i.e. prβGK-278.GFP) was generated by exchanging the CAT-SV40pA-expression cassette of prβGK-278.CAT (Leibiger et al., 1994a) versus the EGFP-bGHpA-expression cassette obtained from pRcCMVI.GFP (Moede et al., 1999). […] All vector constructions were verified by DNA sequence analysis. […] Expression constructs pCMV5.PKBα, pCMV5.PKBαΔ308/437, pCMV5.PDK1 and pCMV5.PDK1-antisense were kindly provided by Drs. P. Cohen and D. R. Alessi (MRC Phosphorylation Unit, University of Dundee, UK).
HIT cells were reported to show glucose responsiveness at subphysiological concentrations between 0.1 and 2 mM (Sharma et al., 1995). HIT cells were grown in RPMI 1640 medium supplemented with 100 units/ml penicillin, 100 μg/ml streptomycin, 2 mM glutamine and 10% fetal calf serum at 5% CO2 and 37° C. Pancreatic islets were isolated from normally fed male Wistar rats and from mice by collagenase digestion. Isolated islets were incubated overnight at 5% CO2 and 37° C. in RPMI 1640 medium, supplemented as described above. Transfection of HIT-T15 and islet cells was performed overnight by the lipofectamine technique in RPMI 1640 medium, without serum and antibiotics. For on-line monitoring, cells were grown and transfected on 24-mm glass coverslips. Following transfection, HIT cells were cultured for 12-18 h in RPMI 1640 medium containing 0.1 mM glucose, 10% fetal calf serum and supplemented as above. Before stimulation, islets and islet cells were incubated for 2 h in RPMI 1640 medium, supplemented as above but containing 3 mM glucose. All expression constructs were prepared using the Qiagen Plasmid Maxi Kit (Qiagen), except those used to produce the adenoviruses which where purified by ultracentrifugation via a CsCI-gradient (as described in Sambrook et al, 1989).
Islets were transduced with Ad.rβGK.GFP or Ad.CMV.GFP by incubating 50 islets with 1 ml virus-containing medium for 90 min at 37° C. and 5% CO2. Following transduction, islets were washed 3 times with PBS and cultured further in RPMI 1640 medium. Islets were stimulated 40-72 h after transduction, as described below and analyzed by laser-scanning confocal microscopy.
(§1) All experiments were performed in RPMI 1640 medium, supplemented as above. Protein kinase inhibitors, antibodies or nifedipine were added to the culture medium 30 min prior to stimulation and were kept in the medium throughout stimulation. After stimulation islets, islet cells and HIT cells were cultured further at substimulatory glucose concentrations (0.1 mM for HIT cells and 3 mM for islets and islet cells). For RNA-analysis, islets and cells were harvested 60 min after start of stimulation, if not indicated otherwise. For analysis of protein kinase activities or tyrosine phosphorylation, cells were harvested immediately following stimulation.
(§2) Detection of fluorescence by digital imaging fluorescence microscopy was performed as described previously (Leibiger et al., 1998a; Leibiger et al., 1998b). Briefly, transfected cells were grown on 24-mm glass coverslips. After stimulation the coverslips were placed into a perifusion chamber which was mounted on an inverted microscope (Zeiss Axiovert 135TV). Temperature was kept at 37° C. and the cells were perfused with RPMI 1640 medium. The objective lens used was a Zeiss-Fluar ×40/1.30 oil Imm Korr. Fluorescence imaging was performed with a cooled charged-coupled device camera (CH250 with KAF 1400, Photometrics, Tucson, Ariz.) connected to an imaging system (Inovision) with fluorescence excitation from a SPEX fluorolog-2 CM1T11I spectrofluorometer (Spex Industries).

βGK mRNA = βGK mRNA steady-state levels (comparative RT-PCR) in cultured pancreatic islets / insulin-producing cells; type: cell-based, rat; settings: 50 mM KCl or 1 μM glibenclamide for 5 min at substimulatory glucose
Description: (§3) Insulin-producing HIT-T15 cells were obtained from ATCC. HIT cells were reported to show glucose responsiveness at subphysiological concentrations between 0.1 and 2 mM (Sharma et al., 1995). HIT cells were grown in RPMI 1640 medium supplemented with 100 units/ml penicillin, 100 μg/ml streptomycin, 2 mM glutamine and 10% fetal calf serum at 5% CO2 and 37° C. Pancreatic islets were isolated from normally fed male Wistar rats and from mice by collagenase digestion. Isolated islets were incubated overnight at 5% CO2 and 37° C. in RPMI 1640 medium, supplemented as described above. Transfection of HIT-T15 and islet cells was performed overnight by the lipofectamine technique in RPMI 1640 medium, without serum and antibiotics. For on-line monitoring, cells were grown and transfected on 24-mm glass coverslips. Following transfection, HIT cells were cultured for 12-18 h in RPMI 1640 medium containing 0.1 mM glucose, 10% fetal calf serum and supplemented as above. Before stimulation, islets and islet cells were incubated for 2 h in RPMI 1640 medium, supplemented as above but containing 3 mM glucose. All expression constructs were prepared using the Qiagen Plasmid Maxi Kit (Qiagen), except those used to produce the adenoviruses which where purified by ultracentrifugation via a CsCI-gradient (as described in Sambrook et al, 1989).
as §1
RNA Analysis Levels of βGK mRNA were analyzed by RNase-protection assays and comparative RT-PCR. […] Quantification of the protected complexes was performed by phosphorimaging. […] Levels of μGK mRNA were analyzed by RT-PCR using primers 5′-[…]-3′(SEQ ID NO: 1) and 5′-[…]-3′(SEQ ID NO: 2) for characterizing μGK mRNA in HIT cells and primers 5′-[…]-3′(SEQ ID NO: 3) and 5′-[…]-3′(SEQ ID NO: 4) for μGK mRNA in rat and mouse pancreatic islets and islet cells. Levels of μ-actin mRNA were analyzed by RT-PCR using primers 5′-[…]-3′(SEQ ID NO: 5) and 5′-[…]-3′(SEQ ID NO: 6). […] PCR products were separated on a 6% polyacrylamide sequencing gel and analyzed by phosphorimaging. […]

[1] = test system: rat insulin-I gene promoter; assay: On-line monitoring of insulin promoter-driven DsRed/GFP expression (prIns1.DsRed) in transfected HIT-T15 cells and islet cells; type: cell-based, hamster (HIT-T15), rat (islet cells)
Source text: Construction of prIns1.GFP has been described earlier (Leibiger et al., 1998a). Vector prIns1.DsRed was generated by exchanging the EGFP-expression cassette versus the DsRed-expression cassette obtained from pDsRed1-1 (Clontech). Plasmid prβGK.GFP (i.e. prβGK-278.GFP) was generated by exchanging the CAT-SV40pA-expression cassette of prβGK-278.CAT (Leibiger et al., 1994a) versus the EGFP-bGHpA-expression cassette obtained from pRcCMVI.GFP (Moede et al., 1999). […] All vector constructions were verified by DNA sequence analysis. Constructs for expression of the human Insulin Receptor A and B types, pCMVHIR(A) and pCMVHIR(B) and the control plasmid pCMVstop were kindly provided by Dr. A. Ullrich (Max-Planck-Institute for Biochemistry, Martinsried, Germany). Expression constructs pCMV5.PKBα, pCMV5.PKBαΔ308/437, pCMV5.PDK1 and pCMV5.PDK1-antisense were kindly provided by Drs. P. Cohen and D. R. Alessi (MRC Phosphorylation Unit, University of Dundee, UK).
as §3, §1
as §2, with “Industries). The following filter-settings were used: for GFPs65T: excitation at 485 nm, a 505 nm dicroic mirror and an emission band-pass filter of 500-530 nm; for DsRed: excitation at 558 nm, a 565 nm dicroic mirror and a 580 nm long-pass filter for emission […]” for “Industries).”

[2] = 2.6 nM IGF-I, insulin-producing cells
[3] = co-transfected HIT cells, 5 mU insulin/ml (FIG. 9A)
[4] = co-transfected HIT cells, 5 mU insulin/ml (FIG. 9B)

Question: Which “effect of inhibitor on insulin-stimulated βGK transcription / promoter activity” value (rat βGK promoter) does the source give for COc1cccc(-c2cc(=O)c3ccccc3o2)c1N [PD98059] here?
Answer: not sensitive

Question: With [Cl-].[K+] [KCI, KCl] as the molecule, how does the “βGK mRNA steady state levels upon secretagogue stimulation” value (βGK mRNA) read?
Answer: increase

Question: What about the “βGK promoter-driven GFP expression upon secretagogue stimulation” value (rat βGK promoter) of the same molecule?
Answer: elevation

Question: How did the “effect of inhibitor on insulin-stimulated βGK transcription / promoter activity” value (rat βGK promoter) turn out when CN(C)CCCn1cc(C2=C(c3c[nH]c4ccccc34)C(=O)NC2=O)c2ccccc21 [bisindolylmalemide I] was run?
Answer: not sensitive

Question: Which “effect of inhibitor on insulin-stimulated βGK transcription / promoter activity” value (rat βGK promoter) does the source give for CO[C@H]1C[C@@H]2CC[C@@H](C)[C@@](O)(O2)C(=O)C(=O)N2CCCC[C@H]2C(=O)O[C@H]([C@H](C)C[C@@H]2CC[C@@H](O)[C@H](OC)C2)CC(=O)[C@H](C)/C=C(\C)[C@@H](O)[C@@H](OC)C(=O)[C@H](C)C[C@H](C)/C=C/C=C/C=C/1C [rapamycin] here?
Answer: not inhibited

Question: What about the “effect of inhibitor on insulin-stimulated βGK promoter activity (GFP) in the same co-transfected cell” value (rat βGK promoter) of the same molecule?
Answer: no effect

Question: COc1ccc(Cl)cc1C(=O)NCCc1ccc(S(=O)(=O)NC(=O)NC2CCCCC2)cc1 [glibenclamide] was tested. Which “βGK mRNA steady state levels upon secretagogue stimulation” value (βGK mRNA) did it give?
Answer: increase

Question: And the “βGK promoter-driven GFP expression upon secretagogue stimulation” value (rat βGK promoter)?
Answer: elevation

Question: How did the “βGK promoter-driven reporter gene expression upon IGF-I stimulation” value (rat βGK promoter; [2]) turn out when IGF-I was run?
Answer: did not activate

Question: And the “insulin promoter-driven reporter gene expression upon IGF-I stimulation” value [1, 2]?
Answer: did not activate

Question: Which results are given for O=c1cc(N2CCOCC2)oc2c(-c3ccccc3)cccc12 [LY294002]?
Answer: effect of inhibitor on insulin-stimulated βGK transcription / promoter activity (rat βGK promoter): not inhibited; effect of inhibitor on insulin-stimulated βGK promoter activity (GFP) in the same co-transfected cell (rat βGK promoter): no effect; concentration necessary to completely abolish insulin-stimulated βGK promoter activity (rat βGK promoter; [3]): 100 µM; concentration that blocked insulin-stimulated insulin promoter activity [1, 3]: 25 µM

Question: How did the “concentration necessary to block insulin-stimulated βGK promoter activity” value (rat βGK promoter; [4]) turn out when COC[C@H]1OC(=O)c2coc3c2[C@@]1(C)C1=C(C3=O)[C@@H]2CCC(=O)[C@@]2(C)C[C@H]1OC(C)=O [wortmannin] was run?
Answer: 150 nM

Question: And the “concentration sufficient to inhibit insulin-stimulated insulin promoter activity” value [1, 4]?
Answer: 50 nM

— US7601687B2, “Mechanism for identifying drugs for the treatment of type II diabetes” (BioCrine AB, priority 2006, dated 2009)
